In patent publication US10065951B2, “Small molecule transcription modulators of bromodomains” (Icahn School of Medicine at Mount Sinai, priority 2014, dated 2018):

Target: T1, CBP BRD (Homo sapiens, UniProt Q92793)
T1 construct: made in house
Assay: In vitro fluorescence polarization-based competition binding assay
Details: within series 4a-d
Method: FIG. 1A is a line drawing of the florescence polarization competition assay measuring the binding affinity of compounds 4a-d to the CBP BRD. FIG. 1B provides the IC50 values of compounds 4a-d and MS7972. Results are representative of three independent experiments and the error is SD.
Expression and purification of the recombinant CBP BRD in poly-his tag form was conducted using the procedure as previously described (Mujtaba, S. et al., Mol Cell 13, 251-63 (2004)). The purified protein was confirmed with mass spectroscopy. Binding assays were performed with CBP BRD (5 μM) and fluorescent probe (10 nM), and increasing concentration of unlabeled competing ligand.

T1 sequence (Q92793 1085-1192 limits assumed): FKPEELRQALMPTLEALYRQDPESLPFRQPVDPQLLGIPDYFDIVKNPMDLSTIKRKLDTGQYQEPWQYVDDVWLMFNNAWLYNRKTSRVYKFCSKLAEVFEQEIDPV

Row | SMILES | binding affinity to CBP BRD, in words
1 | CC(=O)NCCn1c2c(c3ccccc31)C(=O)NCC2 [4a, 2,3,4,5-tetrahydro-5-(2′-acetamidoethyl)-1H-pyrido-[4,3-b]indol-1-one] | lowest improvement of the series
2 | CC(=O)NCCCCCCn1c2c(c3ccccc31)C(=O)NCC2 [4d, 2,3,4,5-tetrahydro-5-(6′-acetamidohexyl)-1H-pyrido-[4,3-b]indol-1-one] | partial or total loss of the affinity
